# Values quoted from earlier work in patent US20150376254A1, “GAMMA-MSH ANALOGUES” (TXP Pharma GmbH, priority 2014, published 2015).
# Key:
# MC5r = MC5r (Homo sapiens, UniProt P33032); conditions: J. Med. Chem. 2005, 48, 1839-1848
# MC3r = MC3r (Homo sapiens, UniProt P41968); conditions: relative to MC4r; J. Med. Chem. 2005, 48, 1839-1848
# [1] = test system: normal human lung fibroblasts (NHLF); conditions: TGFβ1-induced NHLF; at higher doses; detailed in U.S. provisional application 61/785,631
# Sequence of MC3r (P41968 whole entry): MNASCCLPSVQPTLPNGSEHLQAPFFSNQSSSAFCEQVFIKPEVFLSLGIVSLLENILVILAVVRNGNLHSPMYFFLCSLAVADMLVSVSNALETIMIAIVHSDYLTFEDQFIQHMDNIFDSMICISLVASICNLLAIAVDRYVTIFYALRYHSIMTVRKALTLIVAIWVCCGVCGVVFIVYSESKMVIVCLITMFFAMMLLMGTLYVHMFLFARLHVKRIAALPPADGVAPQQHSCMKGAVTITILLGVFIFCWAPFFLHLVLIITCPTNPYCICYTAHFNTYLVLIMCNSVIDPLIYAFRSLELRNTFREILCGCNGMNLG
# Sequence of MC5r (P33032 whole entry): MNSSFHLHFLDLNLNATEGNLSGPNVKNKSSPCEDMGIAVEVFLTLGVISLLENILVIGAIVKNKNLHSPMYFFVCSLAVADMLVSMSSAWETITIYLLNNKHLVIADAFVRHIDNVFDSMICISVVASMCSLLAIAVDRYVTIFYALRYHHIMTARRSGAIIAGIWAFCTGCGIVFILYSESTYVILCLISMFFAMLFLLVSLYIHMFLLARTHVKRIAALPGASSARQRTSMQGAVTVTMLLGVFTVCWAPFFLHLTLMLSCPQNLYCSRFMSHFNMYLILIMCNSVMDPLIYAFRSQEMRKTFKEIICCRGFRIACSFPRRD
Substance,binding affinity against the MC5r (MC5r),affinity to the MC3r (MC3r),ECM collagen [1]
γ-MSH,weak,higher affinity,–
"ACTH: adrenocorticotropic hormone, a melanocortin peptide primarily binding MC2R (SYSMEHFRWGKPVGKKRRPVKVYPNGAEDESAEAFPLEF; Corticotropin; UniProt P01189 138-176, looked up)",–,–,statistically significant reduction
